Test [1] concerns the target T1, unphosphorylated c-FMS kinase (uFMS, Seq. ID no. 1) (Homo sapiens, UniProt P07333).
T1 construct: purchased Millipore
T1 sequence (P07333 538-972): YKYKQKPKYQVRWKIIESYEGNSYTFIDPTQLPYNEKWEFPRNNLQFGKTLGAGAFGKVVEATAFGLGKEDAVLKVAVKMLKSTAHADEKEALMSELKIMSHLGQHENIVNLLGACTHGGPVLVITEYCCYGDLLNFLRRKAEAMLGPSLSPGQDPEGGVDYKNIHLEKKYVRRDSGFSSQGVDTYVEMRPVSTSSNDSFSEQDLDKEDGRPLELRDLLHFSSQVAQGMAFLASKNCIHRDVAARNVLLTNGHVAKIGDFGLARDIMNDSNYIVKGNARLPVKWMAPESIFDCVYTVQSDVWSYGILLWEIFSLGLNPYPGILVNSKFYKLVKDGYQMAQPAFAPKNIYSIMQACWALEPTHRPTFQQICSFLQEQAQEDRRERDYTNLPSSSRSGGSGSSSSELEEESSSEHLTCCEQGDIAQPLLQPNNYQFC
Description: uFMS kinase assay (pyruvate kinase/lactate dehydrogenase coupled). It counts as biochemical. The settings on record: ATP 500 μM.
Description: In this assay, the oxidation of NADH (thus the decrease at A340 nm) was continuously monitored spectrophometrically. The reaction mixture (100 μL) contained FMS (purchased from Millipore) (10 nM), polyE4Y (1 mg/mL), MgCl2 (10 mM), pyruvate kinase (4 units), lactate dehydrogenase (0.7 units), phosphoenol pyruvate (1 mM), NADH (0.28 mM) and ATP (500 μM) in 90 mM Tris buffer containing 0.2% octyl-glucoside and 1% DMSO, pH 7.5. The inhibition reaction was started by mixing serial diluted test compound with the above reaction mixture. The absorption at 340 nm was monitored continuously for 4 hours at 30° C. on Synergy 2 plate reader. The reaction rate was calculated using the 3 to 4 h time frame. Percent inhibition was obtained by comparison of reaction rate with that of a control (i.e. in the absence of test compound). IC50 values were calculated from a series of percent inhibition values determined at a range of inhibitor concentrations using software routines as implemented in the GraphPad Prism software package.

In test [2] the target is T2, unphosphorylated c-KIT kinase (uKIT, Seq. ID no. 2) (Homo sapiens, UniProt P10721).
T2 construct: uKit with N-terminal GST fusion used for
T2 sequence (P10721 with tags, fused parts or gaps): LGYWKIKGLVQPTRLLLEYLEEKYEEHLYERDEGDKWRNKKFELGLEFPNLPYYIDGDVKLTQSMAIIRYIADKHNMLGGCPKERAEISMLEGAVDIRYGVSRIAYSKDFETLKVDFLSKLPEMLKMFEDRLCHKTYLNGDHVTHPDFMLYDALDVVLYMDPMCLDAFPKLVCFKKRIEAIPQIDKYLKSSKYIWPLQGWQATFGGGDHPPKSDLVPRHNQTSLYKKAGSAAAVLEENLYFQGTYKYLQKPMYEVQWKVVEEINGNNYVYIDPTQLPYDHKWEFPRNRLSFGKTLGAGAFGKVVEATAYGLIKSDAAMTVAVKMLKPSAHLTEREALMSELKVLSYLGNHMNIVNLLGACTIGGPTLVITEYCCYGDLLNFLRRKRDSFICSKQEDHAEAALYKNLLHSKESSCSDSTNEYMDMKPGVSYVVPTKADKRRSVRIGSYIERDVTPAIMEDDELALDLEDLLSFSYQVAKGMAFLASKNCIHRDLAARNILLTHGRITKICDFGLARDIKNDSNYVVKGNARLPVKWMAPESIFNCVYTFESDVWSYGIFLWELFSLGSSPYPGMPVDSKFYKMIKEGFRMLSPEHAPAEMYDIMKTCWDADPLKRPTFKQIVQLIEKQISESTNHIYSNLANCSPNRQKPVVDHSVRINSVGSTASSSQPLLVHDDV
Description: uKit kinase assay (pyruvate kinase/lactate dehydrogenase coupled). The class given is biochemical. The settings on record: ATP 2000 μM.
Description: In this assay, the oxidation of NADH (thus the decrease at A340 nm) was continuously monitored spectrophometrically. […] The inhibition reaction was started by mixing serial diluted test compound with the above reaction mixture. The absorption at 340 nm was monitored continuously for 4 hours at 30° C. on Synergy 2 plate reader (BioTech).

The target of test [3] is T3, unphosphorylated PDGFRβ kinase (uPDGFRβ, Seq. ID No. 3) (Homo sapiens, UniProt P09619).
T3 construct: purchased DeCode
T3 sequence (P09619 557-1105): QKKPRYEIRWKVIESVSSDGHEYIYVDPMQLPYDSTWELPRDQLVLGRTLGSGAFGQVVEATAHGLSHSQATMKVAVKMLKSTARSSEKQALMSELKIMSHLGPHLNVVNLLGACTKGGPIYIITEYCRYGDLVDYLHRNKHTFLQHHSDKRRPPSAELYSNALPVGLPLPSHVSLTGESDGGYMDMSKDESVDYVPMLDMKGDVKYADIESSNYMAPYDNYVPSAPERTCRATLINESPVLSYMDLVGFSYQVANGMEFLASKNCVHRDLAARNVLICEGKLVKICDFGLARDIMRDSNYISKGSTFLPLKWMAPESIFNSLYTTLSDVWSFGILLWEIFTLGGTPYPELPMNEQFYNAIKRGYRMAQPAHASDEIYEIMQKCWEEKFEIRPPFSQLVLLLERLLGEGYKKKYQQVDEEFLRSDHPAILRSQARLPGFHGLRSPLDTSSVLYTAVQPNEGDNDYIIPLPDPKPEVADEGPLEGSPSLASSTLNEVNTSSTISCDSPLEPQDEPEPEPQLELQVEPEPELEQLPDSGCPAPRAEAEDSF
Description: Unphosphorylated PDGFRβ kinase assay (pyruvate kinase/lactate dehydrogenase coupled). The class given is biochemical. The note with it: ATP 500 μM. The source says: Unphosyhorylated PDGFRβ (uPDGFRβkinase (Seq. ID No. 3) assay

Test [4] concerns M-NFS-60 cells. Description: M-NFS-60 cell proliferation assay. The class given is cell-based. The settings on record: 67 h incubation, resazurin. (The colour change of resazurin is a common sign of viable cells or microbes.)
Description: M-NFS-60 Cell Proliferation Assay A serial dilution of test compound was dispensed into a 384-well black clear bottom plate (Corning, Corning, N.Y.). Two thousand five hundred cells were added per well in 50 μL complete growth medium. […] IC50 values were calculated from a series of percent inhibition values determined at a range of inhibitor concentrations using software routines as implemented in the GraphPad Prism software package.
Test [5] has as its system osteoclast precursors. Description: Osteoclast tartrate-resistant acid phosphatase assay. The class given is cell-based. The note with it: 7-14 days, RANKL and M-CSF. The protocol: Diluted compound was transferred to a 384-well black clear bottom plate. Two-thousand five hundred osteoclast precursors (Lonza, Walkersville, Md.) were added per well in growth media containing Receptor Activator of Nuclear Factor Kappa-beta ligand (RANKL) and M-CSF (R&D Systems, Minneapolis, Minn.). Plates were incubated for 7-14 days at 37 degrees Celsius, 5% CO2, and 95% humidity to allow differentiation of osteoclast precursors. […] Tartrate-resistant acid phosphatase activity in the supernatant samples was determined using an acid phosphatase assay kit (Sigma, St. Louis, Mo.). Absorbance was measured at 550 nm using a plate reader. Data was analyzed using Prism software (Graphpad, San Diego, Calif.) to calculate IC50 values.

A value given as a limit tells only on which side of the number the result lay.

Take `CC(=O)Nc1cc(Oc2ccc(NC(=O)NC(=O)C3CCOC3)nc2C)ccn1` (stereo not shown) [Example 14, N-((5-((2-acetamidopyridin-4-yl)oxy)-6-methylpyridin-2-yl)carbamoyl)tetrahydrofuran-3-carboxamide]: the IC50 (in general, the midpoint of a concentration-inhibition curve) is 100 to 1000 nM in test [1]; more than 1000 nM in test [2]; more than 1000 nM in test [3]; 10 to 100 nM in test [4]; 100 to 1000 nM in test [5] (Osteoclast).

`CC(C)(C)C(=O)NC(=O)Nc1ccc(Oc2ccnc(NC(=O)CN3CCCC3)c2)cn1` [Example 53, N-((5-((2-(2-(pyrrolidin-1-yl)acetamido)pyridin-4-yl)oxy)pyridin-2-yl)carbamoyl)pivalamide]: the IC50 in test [1] is 10 to 100 nM; in test [2], more than 1000 nM; in test [3] it was more than 1000 nM; in test [4], more than 1000 nM; in test [5] (Osteoclast), 10 to 100 nM.

Consider `CN1CCC(NC(=O)c2cc(Oc3ccc(NC(=O)NC(=O)C(C)(C)C)nc3)ccn2)CC1` [Example 75, N-(1-methylpiperidin-4-yl)-4-((6-(3-pivaloylureido)pyridin-3-yl)oxy)picolinamide], for which the IC50 in test [1] is 100 to 1000 nM; in test [2], more than 1000 nM; in test [3] it was more than 1000 nM; in test [4] it was more than 1000 nM; in test [5] (Osteoclast), 10 to 100 nM.

Consider `CCC(=O)Nc1cc(Oc2ccc(NC(=O)NC(=O)C3(OC)CC3)nc2)ccn1` [Example 39, 1-methoxy-N-((5-((2-propionamidopyridin-4-yl)oxy)pyridin-2-yl)carbamoyl)cyclopropanecarboxamide], for which the IC50 was 10 to 100 nM in test [1]; more than 1000 nM in test [2]; more than 1000 nM in test [3]; 10 to 100 nM in test [4]; 10 to 100 nM in test [5] (Osteoclast).

Turning to `CN(C)C(=O)Nc1cc(Oc2ccc(NC(=O)NC(=O)C3(C)CC3)nc2)ccn1` [Example 50, N-((5-((2-(3,3-dimethylureido)pyridin-4-yl)oxy)pyridin-2-yl)carbamoyl)-1-methylcyclopropanecarboxamide], the IC50 in test [1] was less than 10 nM; in test [2], 10 to 100 nM; in test [3], 10 to 100 nM; in test [4] it was less than 10 nM; in test [5] (Osteoclast), less than 10 nM.

As to `CN(C)CC(=O)Nc1cc(Oc2ccc(NC(=O)NC(=O)C(C)(C)C)nc2)ccn1` [Example 54, N-((5-((2-(2-(dimethylamino)acetamido)pyridin-4-yl)oxy)pyridin-2-yl)carbamoyl)pivalamide], the IC50 in test [1] is 10 to 100 nM; in test [2] it was more than 1000 nM; in test [3], more than 1000 nM; in test [4], 100 to 1000 nM; in test [5] (Osteoclast) it was 100 to 1000 nM.

`CC(C)(C)C(=O)NC(=O)Nc1ccc(Oc2ccnc(C(=O)NC3CC3)c2)cn1` [Example 74, N-cyclopropyl-4-((6-(3-pivaloylureido)pyridin-3-yl)oxy)picolinamide]: the IC50 in test [1] is 10 to 100 nM; in test [2], more than 1000 nM; in test [3], more than 1000 nM; in test [4] it was 100 to 1000 nM; in test [5] (Osteoclast), 10 to 100 nM.

As to `CC(=O)Nc1cc(Oc2ccc(NC(=O)NC(=O)C(C)C)nc2C)ccn1` [Example 10, N-((5-((2-acetamidopyridin-4-yl)oxy)-6-methylpyridin-2-yl)carbamoyl)isobutyramide], the IC50 in test [1] is 10 to 100 nM; in test [2], more than 1000 nM; in test [3], 100 to 1000 nM; in test [4], 10 to 100 nM; in test [5] (Osteoclast), 10 to 100 nM.

As for `O=C(NC(=O)C1CCOCC1)Nc1ccc(Oc2ccnc(NC(=O)C3CC3)c2)cn1` [Example 35, N-((5-((2-(cyclopropanecarboxamido)pyridin-4-yl)oxy)pyridin-2-yl)carbamoyl)tetrahydro-2H-pyran-4-carboxamide], the IC50 in test [1] is less than 10 nM; in test [2] it was 100 to 1000 nM; in test [3], less than 10 nM; in test [4], less than 10 nM; in test [5] (Osteoclast), less than 10 nM.

Turning to `CN(C)C1CC(C(=O)Nc2cc(Oc3ccc(NC(=O)NC(=O)C(C)(C)C)nc3)ccn2)C1` (stereo not shown) [Example 61, (1r,3r)-3-(dimethylamino)-N-(4-((6-(3-pivaloylureido)pyridin-3-yl)oxy)pyridin-2-yl)cyclobutanecarboxamide], the half-inhibitory concentration (IC50) in test [1] was 10 to 100 nM; in test [2], more than 1000 nM; in test [3] it was 100 to 1000 nM; in test [4], 100 to 1000 nM; in test [5], 10 to 100 nM.

Take `CC(C)(C)C(=O)NC(=O)Nc1ccc(Oc2ccnc(NC(=O)N3CCCC3)c2)cn1` [Example 78, N-(4-((6-(3-pivaloylureido)pyridin-3-yl)oxy)pyridin-2-yl)pyrrolidine-1-carboxamide]: the IC50 is less than 10 nM in test [1]; 10 to 100 nM in test [2]; 10 to 100 nM in test [3]; less than 10 nM in test [4]; less than 10 nM in test [5] (Osteoclast).

Turning to `CC(=O)Nc1cc(Oc2ccc(NC(=O)NC(=O)CC3CCOCC3)nc2)ccn1` [Example 6, N-((5-((2-acetamidopyridin-4-yl)oxy)pyridin-2-yl)carbamoyl)-2-(tetrahydro-2H-pyran-4-yl)acetamide], the IC50 in test [1] is 10 to 100 nM; in test [2], more than 1000 nM; in test [3] it was 10 to 100 nM; in test [4] it was 100 to 1000 nM; in test [5] (Osteoclast), 10 to 100 nM.

As to `CC(C)C(=O)NC(=O)Nc1ccc(Oc2ccnc(NC(=O)C3CCN(C)CC3)c2)cn1` [Example 57, N-(4-((6-(3-isobutyrylureido)pyridin-3-yl)oxy)pyridin-2-yl)-1-methylpiperidine-4-carboxamide], the half-maximal inhibitory concentration (IC50) is 100 to 1000 nM in test [1]; more than 1000 nM in test [2]; more than 1000 nM in test [3]; more than 1000 nM in test [4]; 100 to 1000 nM in test [5] (Osteoclast).

In the case of `CN1CCC(C(=O)Nc2cc(Oc3ccc(NC(=O)NC(=O)C(C)(C)C)nc3)ccn2)C1` (stereo not shown) [Example 55, 1-methyl-N-(4-((6-(3-pivaloylureido)pyridin-3-yl)oxy)pyridin-2-yl)pyrrolidine-3-carboxamide], the IC50 in test [1] was 10 to 100 nM; in test [2], more than 1000 nM; in test [3] it was more than 1000 nM; in test [4] it was more than 1000 nM; in test [5] (Osteoclast) it was 100 to 1000 nM.

Take `CC(=O)Nc1cc(Oc2ccc(NC(=O)NC(=O)C(C)C)nc2)ccn1` [Example 15, N-((5-((2-acetamidopyridin-4-yl)oxy)pyridin-2-yl)carbamoyl)isobutyramide]: the IC50 is 10 to 100 nM in test [1]; more than 1000 nM in test [2]; 100 to 1000 nM in test [3]; 10 to 100 nM in test [4]; 10 to 100 nM in test [5] (Osteoclast).

For `CC(C)(C)C(=O)NC(=O)Nc1ccc(Oc2ccnc(NC(=O)C3CC3)c2)cn1` [Example 18, N-(4-((6-(3-pivaloylureido)pyridin-3-yl)oxy)pyridin-2-yl)cyclopropanecarboxamide], the IC50 in test [1] was less than 10 nM; in test [2], 100 to 1000 nM; in test [3] it was 100 to 1000 nM; in test [4], less than 10 nM; in test [5] (Osteoclast) it was less than 10 nM.

Take `CCC(=O)Nc1cc(Oc2ccc(NC(=O)NC(=O)C3CCOCC3)nc2)ccn1` [Example 32, N-((5-((2-propionamidopyridin-4-yl)oxy)pyridin-2-yl)carbamoyl)tetrahydro-2H-pyran-4-carboxamide]: the concentration for half-maximal inhibition (IC50) was 10 to 100 nM in test [1]; more than 1000 nM in test [2]; 10 to 100 nM in test [3]; 10 to 100 nM in test [4]; 10 to 100 nM in test [5] (Osteoclast).

The values above are taken from patent publication US9309224B2 (Deciphera Pharmaceuticals, LLC, priority 2013, dated 2016).
